In experiment [1] the target is T1, Epidermal growth factor receptor (Homo sapiens, UniProt P00533). Kind of experiment: Inhibition of recombinant EGFR by ELISA. (An ELISA detects its analyte on a solid surface through an enzyme-linked reagent.)
Experiment [2] has as its target T1, Epidermal growth factor receptor. Kind of experiment: Reversible inhibitory activity of EGF-induced EGFR phosphorylation in human A431 cells at 10 to 100 nM by immunoblot analysis. The note with it: A-431.
Experiment [3] deals with A-431. Kind of experiment: Cell cycle arrest in human A431 cells by accumulation at S phase at 1 uM after 24 hrs by propidium iodide staining-based flow cytometry (reference value: 48.5+/-4.2%). It counts as functional. (A flow cytometer gives signals particle by particle.)
Experiment [4] has as its system A-431. Nature of the experiment: Induction of apoptosis in human A431 cells assessed as late apoptotic/necrotic cells level at 3 uM after 12 hrs by annexin V/propidium iodide staining-based flow cytometry (Rvb=0.6+/-0.1%). In kind it is functional.
Experiment [5] has as its system A-431. Nature of the experiment: Induction of apoptosis in human A431 cells assessed as pre-necrotic cells level at 3 uM after 12 hrs by annexin V/propidium iodide staining-based flow cytometry (Rvb=0.9+/-0.1%). In kind it is functional.
Experiment [6] concerns A-431. Nature of the experiment: Induction of apoptosis in human A431 cells assessed as early apoptotic cells level at 3 uM after 12 hrs by annexin V/propidium iodide staining-based flow cytometry (Rvb=3.1+/-0.5%). In kind it is functional.
The subject of experiment [7] is A-431. Kind of experiment: cells. In kind it is functional. The note with it: Homo sapiens, A-431, 72 h.
Description: Growth inhibition of human A431 cells after 72 hrs by MTT assay
Experiment [8] concerns A-431. Kind of experiment: Cell cycle arrest in human A431 cells by accumulation at S phase at 3 uM after 24 hrs by propidium iodide staining-based flow cytometry (reference value: 48.5+/-4.2%). It counts as functional.
Experiment [9] has as its system A-431. Nature of the experiment: Cell cycle arrest in human A431 cells by accumulation at G1 phase at 1 uM after 24 hrs by propidium iodide staining-based flow cytometry (reference value: 39.8+/-0.2%). It counts as functional.
For experiment [10], the system named is A-431. Nature of the experiment: Induction of apoptosis in human A431 cells assessed as viable cells level at 3 uM after 12 hrs by annexin V/propidium iodide staining-based flow cytometry (reference value: 95.4+/-0.5%). In kind it is functional.
In experiment [11] the test system is A-431. Kind of experiment: Cell cycle arrest in human A431 cells by accumulation at G1 phase at 3 uM after 24 hrs by propidium iodide staining-based flow cytometry (reference value: 39.8+/-0.2%). In kind it is functional.
Experiment [12] has as its system A-431. Nature of the experiment: Cell cycle arrest in human A431 cells by accumulation at G2/M phase at 3 uM after 24 hrs by propidium iodide staining-based flow cytometry (reference value: 11.1+/-3.1%). It counts as functional.
For experiment [13], the system named is A-431. Nature of the experiment: Cell cycle arrest in human A431 cells by accumulation at G2/M phase at 1 uM after 24 hrs by propidium iodide staining-based flow cytometry (reference value: 11.1+/-3.1%). In kind it is functional.

The structures appear in SMILES notation. Active and inactive are the calls of the source. The calls are words filed in the database; no cut-off is given here. Bounds are passed on as bounds.

The results in this text go back to ChEMBL document CHEMBL1157709, “Enhancement of EGFR tyrosine kinase inhibition by C-C multiple bonds-containing anilinoquinazolines” (Bioorg Med Chem, 2010).

T1 sequence (P00533 whole entry): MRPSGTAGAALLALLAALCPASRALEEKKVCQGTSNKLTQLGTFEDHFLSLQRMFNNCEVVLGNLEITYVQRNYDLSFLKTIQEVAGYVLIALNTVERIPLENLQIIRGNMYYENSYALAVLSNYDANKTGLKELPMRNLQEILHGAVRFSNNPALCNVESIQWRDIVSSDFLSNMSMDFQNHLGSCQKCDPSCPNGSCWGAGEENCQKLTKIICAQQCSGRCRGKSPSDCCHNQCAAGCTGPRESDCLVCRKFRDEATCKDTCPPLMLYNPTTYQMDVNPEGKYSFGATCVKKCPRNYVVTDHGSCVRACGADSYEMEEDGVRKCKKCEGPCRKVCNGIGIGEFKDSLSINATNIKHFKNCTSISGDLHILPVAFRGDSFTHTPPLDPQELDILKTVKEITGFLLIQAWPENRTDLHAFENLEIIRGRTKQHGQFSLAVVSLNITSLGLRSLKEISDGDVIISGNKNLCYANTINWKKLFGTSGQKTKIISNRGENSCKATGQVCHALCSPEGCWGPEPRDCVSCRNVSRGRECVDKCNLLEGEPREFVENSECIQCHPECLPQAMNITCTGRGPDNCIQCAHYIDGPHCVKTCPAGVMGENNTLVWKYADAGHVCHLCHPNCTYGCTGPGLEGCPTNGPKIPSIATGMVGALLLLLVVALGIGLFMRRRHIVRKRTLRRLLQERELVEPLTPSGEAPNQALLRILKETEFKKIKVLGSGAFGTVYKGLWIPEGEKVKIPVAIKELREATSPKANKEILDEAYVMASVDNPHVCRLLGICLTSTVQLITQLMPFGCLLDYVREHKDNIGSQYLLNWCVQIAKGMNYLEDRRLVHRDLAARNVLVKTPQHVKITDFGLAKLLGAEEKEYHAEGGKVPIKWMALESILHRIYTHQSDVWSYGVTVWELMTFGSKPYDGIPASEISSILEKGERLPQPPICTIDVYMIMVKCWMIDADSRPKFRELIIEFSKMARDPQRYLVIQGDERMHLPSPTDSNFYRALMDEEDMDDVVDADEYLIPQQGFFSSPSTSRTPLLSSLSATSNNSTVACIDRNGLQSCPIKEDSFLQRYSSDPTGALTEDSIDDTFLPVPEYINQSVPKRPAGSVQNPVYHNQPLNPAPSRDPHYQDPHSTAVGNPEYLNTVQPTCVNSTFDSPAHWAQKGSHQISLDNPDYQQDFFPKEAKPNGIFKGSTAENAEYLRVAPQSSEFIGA

In the case of `C#CCOc1cc2c(Nc3ccc(F)c(Cl)c3)ncnc2cc1OC`, in experiment [1], the IC50 – broadly, the point on the concentration scale where inhibition reaches its midpoint – was found to be 14.8 nM. Further, the inhibition entry in experiment [2] is “Active”.
For `C#CCOc1cc2c(Nc3cccc(Cl)c3)ncnc2cc1OC` the same measures were 25.9 nM and “Active”.
In the case of `C#CCCCOc1cc2c(Nc3ccc(F)c(Cl)c3)ncnc2cc1OC`, the IC50 in experiment [1] was 2.53 nM. The Activity in experiment [3] stood at 34.7%; in experiment [4] it was 4.2%; in experiment [5], 1.1%; in [6], 13.5%; in experiment [8], 22.1%; in [9], 53.5%. Also, the Activity in [10] was found to be 81.2%; in experiment [11], 65.3%; in experiment [12], 12.5%; in experiment [13], 11.7%. For the same compound, the GI50 – broadly, the concentration at which growth is held to half of that of the control – in experiment [7] was found to be 221 nM.
For the compound `C#Cc1cc2c(Nc3ccc(F)c(Cl)c3)ncnc2cc1OC`, the IC50 in experiment [1] is above 1000 nM.
On to `C=CCCCCOc1cc2c(Nc3ccc(F)c(Cl)c3)ncnc2cc1OC`, for which, in experiment [1], the IC50 is 32.6 nM.
On to `C#CCCCCCOc1cc2c(Nc3ccc(F)c(Cl)c3)ncnc2cc1OC`, for which, in experiment [1], the IC50 turned out to be 32.7 nM.
As for `C#CCCCOc1cc2c(Nc3cccc(Cl)c3)ncnc2cc1OC`, the IC50 in [1] turned out to be 17.7 nM.
On to `CCCCCCOc1cc2c(Nc3ccc(F)c(Cl)c3)ncnc2cc1OC`, for which the IC50 in [1] was found to be 106 nM.
